For one series, the system named is WHIM mice. Conditions: gavaged daily 100 mg/kg for 1 or 3 weeks; cited from earlier work.
The conditions of series [1]: mouse, in vivo; cited from earlier work.
Series [2] relates to circulating white blood cells. The note with it: 400-mg single-dose subject; cited from earlier work.
The subject of series [3] is peripheral WBC counts and subsets. Briefly: Phase 1b trial of mavorixafor in combination with nivolumab in metastatic ccRCC: peripheral WBC counts. The class given is in vivo, human.
For series [4] the test system is unchanged. Nature of the series: Phase 1/2 trial of mavorixafor in combination with axitinib in advanced ccRCC: peripheral WBC counts. Format: in vivo, human. Conditions: mavorixafor 400 mg QD + axitinib.
Series [5] has the same test system. Briefly: Long-term extension of phase 2 trial of mavorixafor in WHIM syndrome: WBC counts and infection rate. Conditions: WHIM syndrome phase 2 extension.
Series [6] shares this test system. Briefly: Phase 1b trial of mavorixafor in combination with ibrutinib in Waldenstrom's macroglobulinemia: peripheral WBC counts. Format: in vivo, human. Conditions: WM, interim analysis.
The next series deals with CVID B cells. Briefly: Chemotaxis assay: PBMCs from a patient with CVID due to NFKB1 mutation. Format: cell-based, human. The protocol: PBMCs from patients or healthy donors were resuspended in chemotaxis buffer (RPMI 1640 media containing 20 mM HEPES, L-glutamine, and 0.5% BSA) at 2.0×10^6 cells/mL. […] Chemotaxis was assayed immediately after treatment with drug by placing 1.0×10^5 cells in 100 μL in the upper chamber of a Transwell 24-well plate separated by a 6.5 mm insert with 3 μm pores (Corning Life Sciences, Corning, NY, USA) from the lower chamber containing 600 μL of buffer with the indicated concentration of CXCL12. After incubation for 2.5 hours at 37° C. in a 5% CO2 incubator, the cells that migrated into the lower chamber were collected by centrifugation and resuspended in the assay buffer. Cells were blocked using Human TruStain FcX (BioLegend, Inc) for 10 minutes at RT, and subsequently B lymphocyte subtyping was performed (Alexa Fluor® 488 Mouse anti-human CD19 IgG1, κ, HIB19, BioLegend, Cat #302219). A fixed number of flow cytometry counting beads (Precision Count Beads; BioLegend) were added to each sample.
Both migrated cells and counting beads were counted by flow cytometry (CytoFLEX). Data were analyzed using FCS Express software, and the total number of migrated cells was calculated, according to the counted and total number of beads present in the sample. Results are presented as percentage of migrated B cells out of the total number of B cells placed in the chemotaxis chamber.

[7] abbreviates: after 6 months' treatment (n=20).
Setting [8] is: mavorixafor 300 or 400 mg QD, after 6 months' (n=5) treatment.
The mark [9] stands for this setting: after 6 months' (n=5) treatment.
The mark [10] stands for this setting: compared to screening values, after 4 weeks (n=8).

“Also recorded” adds a separate entry of the source.

With `Cc1cccnc1[C@@H]1CCC[C@H](c2nc3cccc(N4CCN(C)CC4)n3c2CO)N1C`, the “IL-7 production and B cell development” value in the series on WHIM mice was “restored IL-7 production and B cell development”. Further, in series [1], the oral bioavailability entry is listed as “orally bioavailable”.
As to mavorixafor, the “increase in the number of circulating white blood cells (Leukocytosis)” value in series [2] is reported as 2.9 fold above baseline. The ALC in series [3] (after 4 weeks (n=9)) is 141 % of baseline; in series [3] (after 6 months (n=2)) it was 152 % of baseline; in series [4] (after 4 weeks (n=49)) it was 143 % of baseline; in series [4] (setting [7]) it was 139 % of baseline; in series [5] (setting [8]), 239 % of baseline; in series [6] (setting [9]), 106 % of baseline. Further, the ALC in series [6] (setting [10]) is reported as 219 % of baseline. Moreover, the AMC in series [3] (after 4 weeks (n=9)) is listed as 179 % of baseline; in series [3] (after 6 months (n=2)) it was 191 % of baseline; in series [4] (after 4 weeks (n=49)), 182 % of baseline; in series [4] (setting [7]) it was 166 % of baseline; in series [5] (setting [8]), 486 % of baseline; in series [6] (setting [9]), 172 % of baseline. The AMC in series [6] (setting [10]) is recorded as 186 % of baseline. Besides, the ANC in series [3] (after 4 weeks (n=9)) was 143 % of baseline; in series [3] (after 6 months (n=2)), 136 % of baseline; in series [4] (after 4 weeks (n=49)), 158 % of baseline; in series [4] (setting [7]), 171 % of baseline; in series [5] (setting [8]), 652 % of baseline; in series [6] (setting [9]), 192 % of baseline. The ANC in series [6] (setting [10]) is listed as 170 % of baseline. The “total WBC count” value is 146 % of baseline in series [3] (after 4 weeks (n=9)); 147 % of baseline in series [3] (after 6 months (n=2)); 153 % of baseline in series [4] (after 4 weeks (n=49)); 159 % of baseline in series [4] (setting [7]); 339 % of baseline in series [5] (setting [8]); 163 % of baseline in series [6] (setting [9]). For the same compound, the “total WBC count” value in series [6] (setting [10]) is 192 % of baseline. Also, the annualized infection rate in series [5] (after 40 months, baseline 5.6 (SD±3.13) events) is 2.2 (SD±0.93) events. In addition, the “mavorixafor concentration effectively neutralizing the chemotaxis” value with CVID B cells (CVID B cells cultured with 10 nm CXCL12, FIG. 1C) amounted to 0.1 µM. The “effect on enhanced chemotaxis toward CXCL12” value with CVID B cells (CVID patient B cells, FIG. 1C) is “dose-dependent normalization effect on chemotaxis; also recorded: normalizes enhanced chemotaxis”.

Source of the values: patent US20250041292A1, “METHODS FOR TREATING PRIMARY IMMUNODEFICIENCY” (X4 Pharmaceuticals, Inc., priority 2021, published 2025).
